Data from PubChem BioAssay AID256 (DTP/NCI, 2004).
Several values for one entry are separate records, joined by “and”; a condition that tells them apart may be missing. Equal entries are not always repeated. Inconclusive results and toxic doses are left out.

Tested on: CD2F1 mice, L1210 leukemia ip, survival T/C
Assay: NCI In Vivo Anticancer Drug Screen. Data for tumor model L1210 Leukemia (intraperitoneal) in CD2F1 (CDF1) mice
Details: higher = longer survival
Method in brief: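 Vehicle-treated tumor-bearing mice served as controls (C) for compound-treated mice (T). Reported figure is T divided by C.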

[1] = endpoint: mean survival time, dose: 100.0 mg/kg/injection, schedule: Q04DX003 (ip), vehicle: saline with Tween-80
[2] = endpoint: mean survival time, dose: 200.0 mg/kg/injection, schedule: Q04DX003 (ip), vehicle: saline with Tween-80
[3] = endpoint: mean survival time, dose: 400.0 mg/kg/injection, schedule: Q04DX003 (ip), vehicle: saline with Tween-80
[4] = endpoint: mean survival time, dose: 25.0 mg/kg/injection, schedule: Q01DX009 (ip), vehicle: saline with Tween-80
[5] = endpoint: mean survival time, dose: 50.0 mg/kg/injection, schedule: Q01DX009 (ip), vehicle: saline with Tween-80

In the case of `O=C1CCC(=O)N1CCC1=NCCc2ccccc21`, the T/C [1] was 100 % of control, the T/C [2] was 96 % of control and the T/C [3] was 100 % of control.
In the case of `O=C(Nc1ccc(Cl)cc1)c1cc(Br)ccc1O`, the T/C [1] was 92 % of control, the T/C [2] was 88 % of control and the T/C [3] was 92 % of control.
In the case of `C[n+]1c(-c2ccc(NC(=O)c3ccc(C(=O)Nc4ccc(-c5cn6ccccc6[n+]5C)cc4)cc3)cc2)cn2ccccc21`, the T/C (endpoint: median survival time, dose: 5.4 mg/kg/injection, schedule: Q01DX005 (ip), vehicle: saline with Tween-80) was 200 % of control, the T/C (endpoint: median survival time, dose: 6.25 mg/kg/injection, schedule: Q01DX005 (ip), vehicle: saline with Tween-80) was 168 % of control and the T/C (endpoint: median survival time, dose: 9.0 mg/kg/injection, schedule: Q01DX005 (ip), vehicle: saline with Tween-80) was 211 % of control. The T/C (endpoint: median survival time, dose: 12.5 mg/kg/injection, schedule: Q01DX005 (ip), vehicle: saline with Tween-80) was 200 % of control, the T/C (endpoint: median survival time, dose: 15.0 mg/kg/injection, schedule: Q01DX005 (ip), vehicle: saline with Tween-80) was 352 % of control and the T/C (endpoint: median survival time, dose: 25.0 mg/kg/injection, schedule: Q01DX005 (ip), vehicle: saline with Tween-80) was 312 % of control and 341 % of control. For the same compound, the T/C (endpoint: median survival time, dose: 42.0 mg/kg/injection, schedule: Q01DX005 (ip), vehicle: saline with Tween-80) was 152 % of control, the T/C (endpoint: median survival time, dose: 100.0 mg/kg/injection, schedule: Q01DX005 (ip), vehicle: saline with Tween-80) was 86 % of control and the T/C (endpoint: median survival time, dose: 116.0 mg/kg/injection, schedule: Q01DX005 (ip), vehicle: saline with Tween-80) was 109 % of control.
`CCCCN1C(=O)C(=O)N(c2cc(Cl)c(OC)cc2OC)C1=O` was tested, and the T/C (endpoint: mean survival time, dose: 12.5 mg/kg/injection, schedule: Q01DX009 (ip), vehicle: saline with Tween-80) was 103 % of control, the T/C [4] was 88 % of control and the T/C [5] was 93 % of control and 96 % of control.
For `O=C1CCC(C(=O)O)=NN1`, the T/C (endpoint: mean survival time, dose: 12.5 mg/kg/injection, schedule: Q01DX009 (ip), vehicle: water) was 96 % of control, the T/C (endpoint: mean survival time, dose: 25.0 mg/kg/injection, schedule: Q01DX009 (ip), vehicle: water) was 101 % of control and the T/C (endpoint: mean survival time, dose: 50.0 mg/kg/injection, schedule: Q01DX009 (ip), vehicle: water) was 93 % of control. The T/C (endpoint: mean survival time, dose: 100.0 mg/kg/injection, schedule: Q01DX009 (ip), vehicle: water) was 93 % of control and the T/C (endpoint: mean survival time, dose: 200.0 mg/kg/injection, schedule: Q01DX009 (ip), vehicle: water) was 90 % of control.
For `Nc1[nH]c(=S)[nH]c(=O)c1N`, the T/C (endpoint: mean survival time, dose: 6.25 mg/kg/injection, schedule: Q04DX002 (ip), vehicle: saline with Tween-80) was 102 % of control, the T/C (endpoint: mean survival time, dose: 12.5 mg/kg/injection, schedule: Q04DX002 (ip), vehicle: saline with Tween-80) was 102 % of control and the T/C (endpoint: mean survival time, dose: 25.0 mg/kg/injection, schedule: Q04DX002 (ip), vehicle: saline with Tween-80) was 102 % of control.
With `Nc1n[nH]c(=S)n1-c1ccc(Cl)cc1` the T/C (endpoint: mean survival time, dose: 100.0 mg/kg/injection, schedule: Q01DX009 (ip), vehicle: acetone) was 97 % of control, the T/C (endpoint: mean survival time, dose: 200.0 mg/kg/injection, schedule: Q01DX009 (ip), vehicle: acetone) was 101 % of control and the T/C (endpoint: mean survival time, dose: 400.0 mg/kg/injection, schedule: Q01DX009 (ip), vehicle: acetone) was 106 % of control.
For `CCOC(=O)c1cnc2c(cnn2CC)c1OCc1ccccc1`, the T/C (endpoint: mean survival time, dose: 100.0 mg/kg/injection, schedule: Q04DX003 (ip), vehicle: Klucel (hydroxypropylcellulose) (HPC)) was 101 % of control, the T/C (endpoint: mean survival time, dose: 200.0 mg/kg/injection, schedule: Q04DX003 (ip), vehicle: Klucel (hydroxypropylcellulose) (HPC)) was 104 % of control and the T/C (endpoint: mean survival time, dose: 400.0 mg/kg/injection, schedule: Q04DX003 (ip), vehicle: Klucel (hydroxypropylcellulose) (HPC)) was 108 % of control.
For `CCOC(=O)/N=c1\ccccn1O`, the T/C (endpoint: mean survival time, dose: 75.0 mg/kg/injection, schedule: Q01DX001 (ip), vehicle: saline) was 101 % of control, the T/C (endpoint: mean survival time, dose: 150.0 mg/kg/injection, schedule: Q01DX001 (ip), vehicle: saline) was 101 % of control and the T/C (endpoint: mean survival time, dose: 300.0 mg/kg/injection, schedule: Q01DX001 (ip), vehicle: saline) was 105 % of control.
`CCCCCCCCCC(=O)NC(=S)Nc1ccc(Cl)cc1` was tested, and the T/C [4] was 95 % of control and 96 % of control, the T/C [5] was 98 % of control and 101 % of control and the T/C (endpoint: mean survival time, dose: 100.0 mg/kg/injection, schedule: Q01DX001 (ip), vehicle: saline with Tween-80) was 94 % of control and 95 % of control. For the same compound, the T/C (endpoint: mean survival time, dose: 100.0 mg/kg/injection, schedule: Q04DX002 (ip), vehicle: saline with Tween-80) was 100 % of control and 104 % of control, the T/C (endpoint: mean survival time, dose: 200.0 mg/kg/injection, schedule: Q01DX001 (ip), vehicle: saline with Tween-80) was 92 % of control and 103 % of control and the T/C (endpoint: mean survival time, dose: 200.0 mg/kg/injection, schedule: Q04DX002 (ip), vehicle: saline with Tween-80) was 92 % of control and 93 % of control. The T/C (endpoint: mean survival time, dose: 400.0 mg/kg/injection, schedule: Q01DX001 (ip), vehicle: saline with Tween-80) was 100 % of control and 103 % of control and the T/C (endpoint: mean survival time, dose: 400.0 mg/kg/injection, schedule: Q04DX002 (ip), vehicle: saline with Tween-80) was 88 % of control and 90 % of control.
`Nc1nc(N)c2c(=O)c(CNc3ccc(C(=O)NC(CCC(=O)O)C(=O)O)cc3)c[nH]c2n1` (centres undefined) was tested, and the T/C (endpoint: mean survival time, dose: 0.25 mg/kg/injection, schedule: Q01DX005 (ip), vehicle: sodium bicarbonate) was 104 % of control, the T/C (endpoint: mean survival time, dose: 0.5 mg/kg/injection, schedule: Q01DX005 (ip), vehicle: sodium bicarbonate) was 119 % of control and 100 % of control and the T/C (endpoint: mean survival time, dose: 1.0 mg/kg/injection, schedule: Q01DX005 (ip), vehicle: sodium bicarbonate) was 113 % of control and 100 % of control. For the same compound, the T/C (endpoint: mean survival time, dose: 2.0 mg/kg/injection, schedule: Q01DX005 (ip), vehicle: sodium bicarbonate) was 98 % of control and 106 % of control, the T/C (endpoint: mean survival time, dose: 4.0 mg/kg/injection, schedule: Q01DX005 (ip), vehicle: sodium bicarbonate) was 91 % of control and 104 % of control and the T/C (endpoint: mean survival time, dose: 16.0 mg/kg/injection, schedule: Q01DX005 (ip), vehicle: sodium bicarbonate) was 98 % of control.
